Test results published in BigSolDB 2.1.

CC1(C)[C@H](C(=O)O)[C@@H]1/C=C(\Cl)C(F)(F)F (racemic)
solubility (mole fraction)
Settings | 283.15 K | 288.15 K | 293.15 K | 298.15 K | 303.15 K | 308.15 K | 313.15 K | 318.15 K | 323.15 K
in cyclohexane | 0.00261 | 0.00304 | 0.00447 | 0.00592 | 0.00821 | 0.0119 | 0.0175 | 0.0258 | 0.0384
in ethanol | 0.077 | 0.0817 | 0.0944 | 0.106 | 0.121 | 0.143 | 0.168 | 0.195 | 0.228
in ethyl acetate | 0.0818 | 0.0938 | 0.109 | 0.123 | 0.141 | 0.165 | 0.186 | 0.217 | 0.243
in isobutanol | 0.0701 | 0.0843 | 0.099 | 0.116 | 0.13 | 0.147 | 0.168 | 0.2 | 0.233
in methanol | 0.058 | 0.0664 | 0.0722 | 0.0813 | 0.098 | 0.119 | 0.139 | 0.166 | 0.191
in methyl acetate | 0.0727 | 0.0848 | 0.0976 | 0.114 | 0.129 | 0.151 | 0.171 | 0.2 | 0.226
in n-butanol | 0.0748 | 0.0848 | 0.0964 | 0.11 | 0.129 | 0.149 | 0.167 | 0.203 | 0.239
in n-butyl acetate | 0.089 | 0.102 | 0.119 | 0.135 | 0.153 | 0.175 | 0.195 | 0.223 | 0.247
in n-propanol | 0.0753 | 0.0829 | 0.0944 | 0.109 | 0.13 | 0.142 | 0.173 | 0.213 | 0.252
in sec-butanol | 0.0987 | 0.111 | 0.138 | 0.161 | 0.179 | 0.204 | 0.231 | 0.265 | 0.285
in tert-butanol | 0.13 | 0.144 | 0.169 | 0.197 | 0.224 | 0.247 | 0.271 | 0.3 | 0.331
